# According to article PMC4363317, “A Highly Efficient Recombinant Laccase from the Yeast Yarrowia lipolytica and Its Application in the Hydrolysis of Biomass” (PLoS ONE, 2015):
# Target: T1, YlLac (Yarrowia lipolytica, UniProt G1C1M2)
# T1 construct: ORF 519 residues incl; 19-residue native signal (abstract instead calls the mature protein 519 aa); expressed without native signal behind alpha-factor signal (pPICZalphaA-Wsp-YlLac) in Pichia pastoris KM71H; forward primer GCCATTGGCCCGGTGACC encodes AIGPVT; monomer, glycosylated ~67-68 kDa, ~55 kDa after endoH
# T1 sequence (G1C1M2 20-519): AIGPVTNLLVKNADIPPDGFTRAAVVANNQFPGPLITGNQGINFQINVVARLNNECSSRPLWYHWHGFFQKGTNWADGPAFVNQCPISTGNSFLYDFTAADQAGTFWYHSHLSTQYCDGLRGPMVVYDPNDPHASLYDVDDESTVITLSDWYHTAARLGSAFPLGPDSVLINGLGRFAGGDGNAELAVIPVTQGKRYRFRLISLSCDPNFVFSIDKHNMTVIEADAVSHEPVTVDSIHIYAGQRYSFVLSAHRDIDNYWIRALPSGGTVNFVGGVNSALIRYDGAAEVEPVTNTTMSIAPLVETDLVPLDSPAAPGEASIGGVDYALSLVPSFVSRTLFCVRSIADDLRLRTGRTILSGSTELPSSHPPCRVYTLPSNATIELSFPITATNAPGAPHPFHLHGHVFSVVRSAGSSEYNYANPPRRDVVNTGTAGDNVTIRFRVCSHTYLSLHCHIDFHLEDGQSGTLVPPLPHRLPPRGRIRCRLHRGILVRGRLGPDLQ
# Test: biochemical
# Design: spectrophotometric ABTS oxidation by purified recombinant YlLac with inhibitor, 50 mM sodium acetate pH 4.8
# Conditions: 0.1 mM; 0.1 mM ABTS, pH 4.8; read-out: % of control remaining
# Description: Sodium dodecyl sulfate polyacrylamide gel electrophoresis (SDS-PAGE; 12% w/v polyacrylamide) was performed as described by Laemmli. The native molecular mass was determined by applying samples to a calibrated Sephacryl S-300 HR 16/60 column as recommended by the supplier (GE Healthcare). Purified recombinant YlLac was treated with endoglycosidase H (NEB, Biolabs UK) according to the manufacturer's protocol. YlLac (6 μg) in 1× glycoprotein denaturing buffer was boiled for 10 min. After cooling, 1 μl of endoglycosidase H was added and the sample was incubated at 37°C overnight. The product of endoglycosidase H treatment was analyzed by SDS-PAGE. Protein bands were stained with Coomassie brilliant blue R-250 (Sigma). The zymogram process was carried out using native PAGE, and the enzyme band was visualized by incubating the gel in 50 mM sodium acetate buffer (pH 4.8) containing 0.1 mM ABTS and 2,6-DMP at room temperature. The UV-vis absorption spectrum of purified laccase was recorded at 25°C on a spectrophotometer (Shimadzu, model UV-1800, Tokyo) in 2 cm path length quartz cells. The effects of pH on laccase activity for various substrates were tested at pH 2–6 in 50 mM citrate-phosphate buffer (pH 2–4) or 50 mM sodium-acetate buffer (pH 4–6). The activity of purified laccase towards the ABTS substrate was examined at 20–80°C at the optimal pH value. The rates of substrate oxidation were determined by measuring the absorbance increases at the respective wavelengths, and the molar extinction coefficients (ε) were obtained from the literature. The effects of various inhibitors and metal ions on the activity of purified laccase were determined using assay mixtures (2 ml) containing appropriately diluted enzyme, 50 mM sodium acetate buffer (pH 4.8), and 0.1 mM ABTS with various concentrations of inhibitors or 5 mM metal ions. Laccase activity in the absence of inhibitor or metal ions was defined as 100%. Measurements were carried out in triplicate. K m and V max values of purified YlLac were determined by measuring the activity of the enzyme with various concentrations (0.01–0.1 mM) of ABTS and 2,6-DMP substrates at the optimal condition in each case. Ki A number of compounds were examined for their effects on YlLac activity, including small ions [compound left out], sulfhydryl group-containing redox reagents (L-cysteine and dithiothreitol, […]), denaturants (thiourea), and a chelator (EDTA) (S2 Table). […] Enzyme activity was not observed in the presence of 0.1 mM NaN3. SDS caused partial inhibition and the metal chelating agent EDTA caused no inhibition. Metal ions such as Cr^3+, Mg^2+, and Mn^2+ inhibited 25%, 24%, and 24% of YlLac activity, respectively.
row,remaining activity at 100 µM,Structure (SMILES)
1,61.1 ± 2.4%,O[C@@H](CS)[C@@H](O)CS (racemic) [Dithiothreitol]
2,76.6 ± 2.1%,N[C@@H](CS)C(=O)O [l-Cysteine]

row,Structure (SMILES),remaining activity at 100 µM
1,NC(N)=S [Thiourea],91.1 ± 2.1%

# Same assay, conditions: 0.5 mM; 0.1 mM ABTS, pH 4.8; read-out: % of control remaining
row,remaining activity at 500 µM,Structure (SMILES)
1,2 ± 0.4%,O[C@@H](CS)[C@@H](O)CS (racemic) [Dithiothreitol]
2,11.1 ± 1.5%,N[C@@H](CS)C(=O)O [l-Cysteine]

row,Structure (SMILES),remaining activity at 500 µM
1,NC(N)=S [Thiourea],42.2 ± 2%

# Same assay, conditions: 1 mM; 0.1 mM ABTS, pH 4.8; read-out: % of control remaining
row,remaining activity at 1000 µM,Structure (SMILES)
1,0%,O[C@@H](CS)[C@@H](O)CS (racemic) [Dithiothreitol]
2,0%,N[C@@H](CS)C(=O)O [l-Cysteine]

row,Structure (SMILES),remaining activity at 1000 µM
1,NC(N)=S [Thiourea],12.3 ± 1.5%
